Data from US8815925B2, “Use of combination preparations comprising antifungal agents” (priority 2006, dated 2014).

Key:
[1] = system: diaper thrush (Candida mycosis)
From the text: The treatment was by topical administration of suitable pharmaceutical substance combinations on the skin, or on the mucosae of the genitourinary tract and of the oropharynx, respectively.
(§1) Therapy with an ointment combination of Clotrimazole/Diclofenac-Na

Candida vulvovaginitis = system: Candida vulvovaginitis
Experimental: The treatment was by topical administration of suitable pharmaceutical substance combinations on the skin, or on the mucosae of the genitourinary tract and of the oropharynx, respectively. […]
as §1
Single dose: 5 mg of Diclofenac-Na/20 mg of Clotrimazole
Dosage regimen: initially (3 days) 3×/day ointment strips of 2.5 cm locally applied in vulva and vagina, subsequently once per day, for 4 days.
patient, suffering from chronic-recurrent Candida vulvovaginitis for years (>10 recurrences/year), otherwise healthy, prior treatment both topical (Clotrimazole, Miconazole) and systemically (Fluconazole, several times, also long-term therapy and therapy of the partner).
Initial therapy: Clotrimazole/Diclofenac (25/25 mg) supp. for 2 days, subsequently
Clotrimazole/Diclofenac as ointment as described in Case 1, for 3 days. […]

[2] = system: chronic-recurrent vulvovaginitis; settings: Fluconazol 150 mg orally, long-term regimen; cited from earlier work

SMILES	clinical picture under monotherapy (summary) ([1]; first diaper thrush case)	healing under monotherapy (summary) ([1]; second (mild) diaper thrush case)	response to local treatment (monotherapy) (Candida vulvovaginitis; Case 1, during pregnancy, before the combination therapy)	response to monotherapy (Candida vulvovaginitis; Case 2, 8 days of therapy, before the combination therapy)	improvement by conventional local therapy (summary) (Candida vulvovaginitis; first and third cases)	course of curing under monotherapy (summary) (Candida vulvovaginitis; second case, 8 days of intensive therapy)	cases that become recurrent after discontinuation [2]
Clc1ccccc1C(c1ccccc1)(c1ccccc1)n1ccnc1 [Clotrimazole]	marked deterioration	healing after three days	complete therapy resistance	low-grade improvement	no improvement	highly retarded	
OC(Cn1cncn1)(Cn1cncn1)c1ccc(F)cc1F [Fluconazol]							about 50%
